Measurements from ChEMBL document CHEMBL1143523, “Semi-synthesis and biological evaluation of analogues of UK-2A, a novel antifungal antibiotic from Streptomyces sp. 517-02” (2005).

Experiments:
Format in all cases: functional
Saccharomyces cerevisiae [1] = assay: Zone of inhibition for Saccharomyces cerevisiae IFO 0203 at 0.125 ug/disc by conventional paper disk method
Saccharomyces cerevisiae [2] = assay: Zone of inhibition for Saccharomyces cerevisiae IFO 0203 at 0.05 ug/disc by conventional paper disk method
Saccharomyces cerevisiae [3] = assay: Zone of inhibition for Saccharomyces cerevisiae IFO 0203 at 0.25 ug/disc by conventional paper disk method
Saccharomyces cerevisiae [4] = assay: Zone of inhibition for Saccharomyces cerevisiae IFO 0203 at 0.025 ug/disc by conventional paper disk method

SMILES | zone of inhibition at 0.125 µg/disc (Saccharomyces cerevisiae [1]) | zone of inhibition at 0.05 µg/disc (Saccharomyces cerevisiae [2]) | zone of inhibition at 0.25 µg/disc (Saccharomyces cerevisiae [3]) | zone of inhibition at 0.025 µg/disc (Saccharomyces cerevisiae [4])
COc1ccnc(C(=O)N[C@H]2COC(=O)[C@H](Cc3ccccc3)[C@@H](OC(=O)C(C)C)[C@H](C)OC2=O)c1OC(C)=O | 14 mm | 12 mm | 18 mm | 10 mm
COc1ccnc(C(=O)N[C@H]2COC(=O)[C@H](Cc3ccccc3)[C@@H](OC(=O)C(C)C)[C@H](C)OC2=O)c1OC(=O)CCCCCC(=O)Oc1ccccc1 | 15 mm | 10 mm | 18 mm | 8 mm
CC(C)C(=O)O[C@H]1[C@H](C)OC(=O)[C@@H](NC(=O)c2nc3ccccc3nc2O)COC(=O)[C@@H]1Cc1ccccc1 | 20 mm | 18 mm | 24 mm | 14 mm
CC(C)C(=O)O[C@H]1[C@H](C)OC(=O)[C@@H](NC(=O)c2cccnc2O)COC(=O)[C@@H]1Cc1ccccc1 | 16 mm | 12 mm | 17 mm | 0 mm
COc1ccc(O)c(C(=O)N[C@H]2COC(=O)[C@H](Cc3ccccc3)[C@@H](OC(=O)C(C)C)[C@H](C)OC2=O)n1 | 24 mm | 19 mm | 27 mm | 16 mm
COc1ccnc(C(=O)N[C@H]2COC(=O)[C@H](Cc3ccc([N+](=O)[O-])cc3)[C@@H](OC(=O)C(C)C)[C@H](C)OC2=O)c1O | 18 mm | 15 mm | 20 mm | 12 mm
COc1ccnc(C(=O)N[C@H]2COC(=O)[C@H](Cc3ccc(N(C)C)cc3)[C@@H](OC(=O)C(C)C)[C@H](C)OC2=O)c1O | 15 mm | 11 mm | 19 mm | 0 mm
CC(C)C(=O)O[C@H]1[C@H](C)OC(=O)[C@@H](NC(=O)c2cccc(NC=O)c2O)COC(=O)[C@@H]1Cc1ccccc1 | 16 mm | 12 mm | 17 mm | 8 mm
CC(C)C(=O)O[C@H]1[C@H](C)OC(=O)[C@@H](NC(=O)c2cccc(N(C)C)c2O)COC(=O)[C@@H]1Cc1ccccc1 | 12 mm | 8 mm | 14 mm | 8 mm
COc1ccnc(C(=O)N[C@H]2COC(=O)[C@H](Cc3ccc(NC=O)cc3)[C@@H](OC(=O)C(C)C)[C@H](C)OC2=O)c1O | 0 mm | 0 mm | 0 mm | 0 mm
COc1ccnc(C(=O)N[C@H]2COC(=O)[C@H](Cc3ccccc3)[C@@H](OC(=O)C(C)C)[C@H](C)OC2=O)c1O | 26 mm | 22 mm | 26 mm | 19 mm
COc1ccnc(C(=O)N[C@H]2COC(=O)[C@H](Cc3ccc(N)cc3)[C@@H](OC(=O)C(C)C)[C@H](C)OC2=O)c1O | 8 mm | 0 mm | 10 mm | 0 mm
COc1ccnc(C(=O)N[C@H]2COC(=O)[C@H](Cc3ccccc3)[C@@H](OC(=O)C(C)C)[C@H](C)OC2=O)c1OC(=O)CCCCCC(=O)O | 21 mm | 16 mm | 24 mm | 12 mm
CCOC(=O)COc1c(OC)ccnc1C(=O)N[C@H]1COC(=O)[C@H](Cc2ccccc2)[C@@H](OC(=O)C(C)C)[C@H](C)OC1=O | 0 mm | 0 mm | 0 mm | 0 mm
CC(C)C(=O)O[C@H]1[C@H](C)OC(=O)[C@@H](NC(=O)c2ccccc2O)COC(=O)[C@@H]1Cc1ccccc1 | 11 mm | 8 mm | 12 mm | 8 mm
COc1ccnc(C(=O)N[C@H]2COC(=O)[C@H](Cc3ccccc3)[C@@H](OC(=O)C(C)C)[C@H](C)OC2=O)c1OC | 0 mm | 0 mm | 0 mm | 0 mm
CCCC[C@H]1C(=O)O[C@H](C)[C@H](NC(=O)c2cccc(NC=O)c2O)C(=O)O[C@@H](C)[C@@H]1OC(=O)CC(C)C [ANTIMYCIN A3] | 19 mm | 18 mm | 26 mm | 16 mm
